Structures can show the parent of a compound that is named as a salt. Where two headings read alike, the source gives them in different places.
Legend:
expanded OPCs = assay: cells; conditions: for viability at 0.1 µM / viability at 1 µM / viability at 10 µM: Rattus norvegicus, 72 h
Method in brief: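 Expanded OPCs seeded at 10,000 cells/well in differentiation media, then exposed to NCC library compounds at 10, 1 and 0.1 µM (quadruplicate, 0.1% DMSO) for three days. Viability read as alamarBlue fluorescence (560/590 nm) after 4 h at 37 °C; tunicamycin 5 ng/ml served as toxicity control.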

[1] = system: acutely dissociated and purified rat OPCs; assay: Acute OL differentiation assay (MBP expression/cell, immunofluorescent image quantification); format: cell-based; conditions: sheet "All OLga data"; for activation at 2 µM / activation at 10 µM / activation at 0.08 µM / activation at 0.4 µM: Rattus norvegicus; for activation at 0.08 µM: test compound at 0.08 uM, read-out: 0.08 uM (% Quet)
Method in brief: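 Oligodendrocyte precursor cells were enriched from P6-P7 Sprague–Dawley rat brains by immunopanning (RAN-2 and GalC depletion, O4 selection), plated at 5000 cells/well in serum-free, mitogen-free differentiation media on PDL/laminin 96-well view plates, centrifuged at 200×g, and pre-incubated 1–2 h before test compounds were added in quadruplicate. On DIV4, cells were fixed, stained for MBP and DAPI, imaged automatically, and MBP expression per cell was quantified.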

[2] = read-out: 0.1 µM (% DMSO), alamarBlue viability, NCC library compound at 0.1 µM, sheet "All Tox data"
[3] = read-out: 1 µM (% DMSO), alamarBlue viability, NCC library compound at 1 µM, sheet "All Tox data"
[4] = read-out: 10 µM (% DMSO), alamarBlue viability, NCC library compound at 10 µM, sheet "All Tox data"
[5] = 2 uM test compound, relative to quetiapine, read-out: OL differentiation, 2 uM (% Quet)
[6] = 10 uM test compound, relative to quetiapine, read-out: OL differentiation, 10 uM (% Quet)
[7] = alamarBlue viability of expanded OPCs, compound at 0.1 µM, relative to DMSO control
[8] = alamarBlue viability of expanded OPCs, compound at 1 µM, relative to DMSO control
[9] = alamarBlue viability of expanded OPCs, compound at 10 µM, relative to DMSO control
[10] = MBP expression relative to quetiapine, NCC library screen
[11] = test compound at 0.4 uM, MBP expression relative to quetiapine, NCC library screen, read-out: 0.4 uM (% Quet)
[12] = test compound at 2 uM, NCC library screen, relative to quetiapine, read-out: 2 uM (% Quet)
[13] = test compound at 10 uM, NCC library screen, relative to quetiapine, read-out: 10 uM (% Quet)
[14] = read-out: 0.1 µM (% DMSO), alamarBlue viability of expanded OPCs, compound at 0.1 µM, sheet All Tox data
[15] = read-out: 1 µM (% DMSO), alamarBlue viability of expanded OPCs, compound at 1 µM, sheet All Tox data
[16] = read-out: 10 µM (% DMSO), alamarBlue viability of expanded OPCs, compound at 10 µM, sheet All Tox data
[17] = test compound at 2 uM, MBP expression relative to quetiapine, NCC library screen, read-out: 2 uM (% Quet)
[18] = 0.4 uM test compound, relative to quetiapine, read-out: OL differentiation, 0.4 uM (% Quet)
[19] = test compound at 10 uM, MBP expression relative to quetiapine, NCC library screen, read-out: 10 uM (% Quet)

Row | Compound | activation at 2 µM [1, 5] [%] | activation at 10 µM [1, 6] [%] | 0.1 µM (% DMSO) (expanded OPCs; [7]) | 1 µM (% DMSO) (expanded OPCs; [8]) | 10 µM (% DMSO) (expanded OPCs; [9]) | viability at 0.1 µM (expanded OPCs; [14]) [%] | viability at 1 µM (expanded OPCs; [15]) [%] | viability at 10 µM (expanded OPCs; [16]) [%] | further results
1 | NC(=O)OCC(COC(N)=O)c1ccccc1 [Felbamate] | -1.8 | -7.9 |  |  |  |  |  |  | viability at 0.1 µM (expanded OPCs; [2]): 92.3%; viability at 1 µM (expanded OPCs; [3]): 95.5%; viability at 10 µM (expanded OPCs; [4]): 91.9%
2 | CCOC(=O)C1=C(C)NC(C)=C(C(=O)OC)C1c1cccc(Cl)c1Cl (stereo not drawn) [Felodipine] |  |  | 85.5 | 62.8 | 18.3 |  |  |  | activation at 0.08 µM [1, 10]: -8.1%; activation at 0.4 µM [1, 11]: 0.8%
3 | CC(C)OC(=O)C(C)(C)Oc1ccc(C(=O)c2ccc(Cl)cc2)cc1 [Fenofibrate] |  |  | 85.2 | 87.6 | 103.9 |  |  |  | activation at 2 µM [1, 12]: 31.5%; activation at 10 µM [1, 13]: -62.3%
4 | Oc1ccc(C2CNCCc3c2cc(O)c(O)c3Cl)cc1 (stereo not drawn) [Fenoldopam] | -32.3 | -79.8 |  |  |  | 106 | 97.4 | 75.9 | 
5 | C[N+]1(CCC(C(N)=O)(c2ccccc2)c2ccccc2)CCCCC1 [Fenpiverinium] | -23.8 | -19.5 |  |  |  | 93.3 | 96.9 | 101 | 
6 | CC(C)(C)NC(=O)[C@H]1CC[C@H]2[C@@H]3CC[C@H]4NC(=O)C=C[C@]4(C)[C@H]3CC[C@]12C [Finasteride] | -14.4 | -17.4 |  |  |  | 83.3 | 85.8 | 85.3 | 
7 | O=C(NCC1CCCCN1)c1cc(OCC(F)(F)F)ccc1OCC(F)(F)F (stereo not drawn) [Flecainide] |  |  | 64.1 | 9.0 | 7.7 |  |  |  | activation at 0.08 µM [1, 10]: 2.3%
8 | O=c1[nH]c(=O)n([C@H]2C[C@H](O)[C@@H](CO)O2)cc1F [Floxuridine] |  |  | 65.0 | 64.9 | 67.9 |  |  |  | activation at 0.4 µM [1, 11]: -13.5%; activation at 2 µM [1, 17]: -23.6%
9 | COC(=O)Nc1nc2cc(C(=O)c3ccc(F)cc3)ccc2[nH]1 [Flubendazole] | -188 |  |  |  |  | 74.4 | 69.3 | 43.7 | activation at 0.4 µM [1, 18]: -62.9%
10 | OC(Cn1cncn1)(Cn1cncn1)c1ccc(F)cc1F [Fluconazole] |  |  | 89.6 | 88.1 | 92.1 |  |  |  | activation at 2 µM [1, 17]: 0.9%; activation at 10 µM [1, 19]: -44.2%
11 | Nc1[nH]c(=O)ncc1F [Flucytosine] | -1.1 | -1 |  |  |  | 98.2 | 90.7 | 99.4 | 
12 | Nc1nc(F)nc2c1ncn2[C@@H]1O[C@H](CO)[C@@H](O)[C@@H]1O [Fludarabine] |  |  | 91.2 | 88.7 | 77.9 |  |  |  | activation at 2 µM [1, 17]: 18.7%; activation at 10 µM [1, 19]: -12.6%
13 | CCOC(=O)c1ncn2c1CN(C)C(=O)c1cc(F)ccc1-2 [Flumazenil] | -7.2 | -31.7 |  |  |  | 84.8 | 88.2 | 95.5 | 
14 | CC1(C)O[C@@H]2C[C@H]3[C@@H]4C[C@H](F)C5=CC(=O)C=C[C@]5(C)[C@@]4(F)[C@@H](O)C[C@]3(C)[C@]2(C(=O)CO)O1 [Fluocinolone Acetonide] |  |  |  |  |  |  |  |  | viability at 0.1 µM (expanded OPCs; [2]): 116%; viability at 1 µM (expanded OPCs; [3]): 118%; viability at 10 µM (expanded OPCs; [4]): 111%; activation at 2 µM [1, 12]: 12.9%; activation at 10 µM [1, 13]: 9.2%
15 | CC(=O)OCC(=O)[C@@]12OC(C)(C)O[C@@H]1C[C@H]1[C@@H]3C[C@H](F)C4=CC(=O)C=C[C@]4(C)[C@@]3(F)[C@@H](O)C[C@@]12C [Fluocinonide] |  |  | 108.3 | 102.9 | 80.4 |  |  |  | activation at 2 µM [1, 17]: 12.4%; activation at 10 µM [1, 19]: -24.4%
16 | CC(=O)[C@@]1(O)CC[C@H]2[C@@H]3C[C@H](C)C4=CC(=O)C=C[C@]4(C)[C@@]3(F)[C@@H](O)C[C@@]21C [Fluorometholone] |  |  | 112.5 | 98.3 | 86.2 |  |  |  | activation at 2 µM [1, 17]: 9.3%; activation at 10 µM [1, 19]: -24.3%
17 | CNCCC(Oc1ccc(C(F)(F)F)cc1)c1ccccc1 (stereo not drawn) [Fluoxetine hydrochloride] |  |  | 77.4 | 42.2 | 7.9 |  |  |  | activation at 0.08 µM [1, 10]: 13%; activation at 0.4 µM [1, 11]: 10.7%
18 | CN1CCN(C2=Nc3cc(F)ccc3Cc3ccccc32)CC1 [Fluperlapine] |  |  |  |  |  |  |  |  | viability at 0.1 µM (expanded OPCs; [2]): 78.1%; viability at 1 µM (expanded OPCs; [3]): 64.8%; viability at 10 µM (expanded OPCs; [4]): 32.2%; activation at 0.4 µM ([1]; test compound at 0.4 uM, NCC library screen, relative to quetiapine, read-out: 0.4 uM (% Quet)): -10.3%; activation at 2 µM [1, 12]: -16.2%
19 | CC(C(=O)O)c1ccc(-c2ccccc2)c(F)c1 (stereo not drawn) [Flurbiprofen] | -3.6 | 24.6 |  |  |  | 95.9 | 103 | 91.2 | viability at 0.1 µM (expanded OPCs; [2]): 91.1%; viability at 1 µM (expanded OPCs; [3]): 88.1%; viability at 10 µM (expanded OPCs; [4]): 89.4%; activation at 2 µM [1, 12]: 1.8%; activation at 10 µM [1, 13]: -6.1%
20 | CC(C)C(=O)Nc1ccc([N+](=O)[O-])c(C(F)(F)F)c1 [Flutamide] |  |  | 88.5 | 91.4 | 103.8 |  |  |  | activation at 2 µM [1, 12]: 2.7%; activation at 10 µM [1, 13]: -38.5%
21 | C[C@@H]1C[C@H]2[C@@H]3C[C@H](F)C4=CC(=O)C=C[C@]4(C)[C@@]3(F)[C@@H](O)C[C@]2(C)[C@@]1(O)C(=O)SCF [Fluticasone] | 14.2 | -38.8 |  |  |  | 103 | 106 | 112 | 
22 | CC(C)n1c(/C=C/C(O)CC(O)CC(=O)O)c(-c2ccc(F)cc2)c2ccccc21 (stereo not drawn) [Fluvastatin] |  |  | 96.9 | 53.3 | 9.3 |  |  |  | activation at 0.08 µM [1, 10]: -66.1%; activation at 0.4 µM [1, 11]: -73.4%
23 | COCCCC/C(=N\OCCN)c1ccc(C(F)(F)F)cc1 [Fluvoxamine] | 23.1 |  |  |  |  | 79.1 | 67.7 | 40 | activation at 0.4 µM [1, 18]: 3.3%
24 | Nc1nc2ncc(CNc3ccc(C(=O)N[C@@H](CCC(=O)O)C(=O)O)cc3)nc2c(=O)[nH]1 [Folic acid] |  |  | 110.4 | 104.7 | 104.5 |  |  |  | activation at 2 µM [1, 12]: -16.1%; activation at 10 µM [1, 13]: -12.9%
25 | NS(=O)(=O)c1cc(C(=O)O)c(NCc2ccco2)cc1Cl [Furosemide] |  |  | 87.5 | 91.0 | 97.3 |  |  |  | activation at 2 µM [1, 12]: 6%; activation at 10 µM [1, 13]: -6%
26 | COC(=O)N1CCN(C(=O)Cc2ccc(Cl)c(Cl)c2)C(CN2CCCC2)C1 (stereo not drawn) [GR 89696] |  |  |  |  |  |  |  |  | 0.1 µM (% DMSO) (expanded OPCs; alamarBlue viability, NCC library compound at 0.1 µM, sheet "All Tox data"): 94.6 % DMSO; 1 µM (% DMSO) (expanded OPCs; alamarBlue viability, NCC library compound at 1 µM, sheet "All Tox data"): 83.7 % DMSO; 10 µM (% DMSO) (expanded OPCs; alamarBlue viability, NCC library compound at 10 µM, sheet "All Tox data"): 70.7 % DMSO; 2 uM (% Quet) ([1]; test compound at 2 uM, NCC library screen, relative to quetiapine): 34.9 % Quet; 10 uM (% Quet) ([1]; test compound at 10 uM, NCC library screen, relative to quetiapine): 63.5 % Quet
27 | CCOC(=O)c1ccc(OC(=O)CCCCCNC(=N)N)cc1 [Gabexate] | 12.6 | 7.2 |  |  |  | 105 | 109 | 123 | 
28 | COc1ccc2c3c1O[C@H]1C[C@@H](O)C=C[C@@]31CCN(C)C2 [Galantamine] | 14.9 | 16.4 |  |  |  | 86.2 | 81.7 | 81.5 | 

— article PMC5011342, “A high throughput drug screening assay to identify compounds that promote oligodendrocyte differentiation using acutely dissociated and purified oligodendrocyte precursor cells” (BMC Research Notes, 2016)
